Structures can show the parent of a compound that is named as a salt.
Assays:
[1] = tested on: late passage prostate epithelial cells; assay: Proliferation of late passage prostate epithelial cells in KSFM plus compounds, 5 days; type: cell-based, human; settings: for total cell number after 5 days: KSFM plus individual compound alone, 1 μM and 0.2 μM (FIG. 16)
Protocol: Stocks of certain chemicals used in the study were prepared by dissolving in DMSO to 10 mM. The chemical stocks were added to culture media to desired final concentrations, as described in Examples 2 to 5 and shown in FIGS. 1 to 17, from the time when cell culture was initiated.
In a control experiment with no added compound, there was minimum increase of cell numbers after 5 days.
In control experiment with no inhibitor added to KSFM, there was minimum increase of cell numbers after 5 days. […] As described above, these include Rho kinase inhibitors (i.e., Rho-associated protein kinase inhibitors) such as Y-27632, SR 3677, GSK 429286 and Thiazovivin; PAK1 inhibitor IPA-3; and myosin II inhibitor (i.e., non-muscle myosin II (NM II) inhibitor) Blebbistatin.

keratinocytes = assay: Expansion of keratinocytes in KSFM supplemented with combinations of components; type: cell-based, human; settings: for cell growth rate: KSFM with EGF, isoproterenol, A 83-01 and rHA
Protocol: In another experiment, keratinocytes were cultured in KSFM supplemented with various combinations of components.
In another experiment, keratinocytes were cultured in the presence of increasing doses of ROCK inhibitor (Y-27632) or Myosin II ATPase inhibitor (blebbistatin), in KSFM supplemented with EGF (0.5 ng/mL), isoproterenol (3 μM), A 83-01 (1 μM), and recombinant human serum albumin (expressed in rice; 100 μg/mL).
In another experiment, keratinocytes were cultured in the presence of increasing doses (between 10 nM to 2 μM) of retinoic acid receptors (RAR) antagonist BMS-453 or retinoic acid receptors (RAR) antagonist BMS-195614, in KSFM supplemented with EGF (0.5 ng/mL), isoproterenol (3 μM), A 83-01 (1 μM), and recombinant human serum albumin (expressed in rice; 100 μg/mL).

[2] = tested on: bronchial epithelial cells; assay: Growth (population doublings) of bronchial epithelial cells in culture; type: cell-based, human; settings: added to KSFM
Protocol: (§1) Epithelial cells (prostate epithelial cells and bronchial epithelial cells) were plated at 3,000-10,000 viable cells/cm^2 in tissue culture vessels, using culture medium as indicated in Examples 2 to 5 and FIGS. 1 to 17, and incubated at 37° C. with 5% CO2. The medium was changed every 2 or 3 days. Cells were sub-cultured using standard trypsinization method when they were about 70-90% confluent. Total cell number was determined using the Countess II Automated Cell Counter (Life Technologies, AMQAX1000) following manufacturer's instructions.
(§2) A formula used for the calculation of population doublings (PD) is presented in Equation A: n=3.32*(log Y−log I)+X Equation A where n=the final PD number at end of a given subculture, Y=the cell yield at the time of harvesting, I=the cell number used as inoculum to begin that subculture, and X=the doubling level of the inoculum used to initiate the subculture being quantitated.
(§3) Prostate and bronchial epithelial cells were grown in KSFM in the presence of Rho kinase inhibitor (i.e., Rho-associated protein kinase inhibitor) Y-27632.
Similar to the experiment above, bronchial epithelial cells were grown in KSFM in the presence of media alone, ALK5 inhibitor A83-01, Rho kinase inhibitor (i.e., Rho-associated protein kinase inhibitor) Y-27632, or both (with or without collagen).

[3] = tested on: human telomerase reverse transcriptase (hTERT) gene; assay: hTERT expression by quantitative real-time PCR in prostate epithelial cells; type: cell-based; settings: KSFM
Protocol: (§4) Total RNA was prepared using TRIzol® Plus RNA Purification Kit (Life Technologies, 12183-555) and PureLink® RNA Mini Kit (Life Technologies, 12183018A), following the manufacturer's instructions. One hundred nanogram total RNA was used for the determination of human telomerase reverse transcriptase (hTERT) expression using the TaqMan® RNA-to-CT™ 1-Step Kit (Life Technologies, 4392938), following the protocol provided by the supplier. hTERT primers and Taqman® probe used were as follows: forward primer, 5′-[…]-3′ (SEQ ID NO:7), reverse primer, 5′-[…]-3′ (SEQ ID NO:8) and Taqman® probe, 5′-[…]-3′ (SEQ ID NO:9).
(§5) In this example, hTERT expression in epithelial cells was assessed in the presence of an ALK5 inhibitor, a Rho kinase inhibitor (i.e., a Rho-associated protein kinase inhibitor), or both. Expression of hTERT gene was examined by quantitative real-time PCR in bronchial epithelial cells and prostate epithelial cells. The cells were treated with an ALK5 inhibitor, A83-01, or a Rho kinase inhibitor (i.e., a Rho-associated protein kinase inhibitor), Y-27632, or both inhibitors, at different passages in KSFM.
As shown in FIG. 6A and FIG. 6B, prostate epithelial cells at early passage (p2) expressed low level of hTERT, which quickly diminished at passage 3 and became non-detectible by passage 5.

[4] = tested on: human telomerase reverse transcriptase (hTERT) gene; assay: hTERT expression by quantitative real-time PCR in bronchial epithelial cells; type: cell-based; settings: KSFM
Protocol: as §4, §5

[5] = tested on: prostate epithelial cells; assay: Growth (population doublings) of prostate epithelial cells in culture; type: cell-based, human; settings: added to KSFM
Protocol: as §1, §2, §3
To examine the effects of additional in vitro and/or ex vivo growth conditions, prostate epithelial cells were grown in KSFM or PrEGM in the presence of media alone, ALK5 inhibitor A83-01, Rho kinase inhibitor (i.e., Rho-associated protein kinase inhibitor) Y-27632, or both (with or without collagen).

[6] = used together with A83-01 in KSFM, 5 μM, 1 μM and 0.2 μM (FIG. 17)
[7] = increasing doses (between 10 nM to 2 μM)

Compound	total cell number after 5 days ([1]; 5 μM)	cell proliferation after 5 days [1, 6]	further results
Cc1ccc2c(c1)C(=O)C1(O)CCN(c3ccccc3)C1=N2 (racemic) [Blebbistatin, (±)-1,2,3,3a-Tetrahydro-3a-hydroxy-6-methyl-1-phenyl-4H-pyrrolo[2,3-b]quinolin-4-one]	did not increase proliferation	synergistically increased	cell growth rate (keratinocytes; increasing doses): No significant increase of cell growth rate
CC1=C(C(=O)Nc2cc3cn[nH]c3cc2F)C(c2ccc(C(F)(F)F)cc2)CC(=O)N1 (stereo not shown) [GSK 429286, 4-[4-(Trifluoromethyl)phenyl]-N-(6-Fluoro-1H-indazol-5-yl)-2-methyl-6-oxo-1,4,5,6-tetrahydro-3-pyridinecarboxamide]	slight increase of total cell numbers	synergistically increased	
CC1(C)CC=C(c2cnc3ccccc3c2)c2cc(C(=O)Nc3ccc(C(=O)O)cc3)ccc21 [BMS-195614]			cell growth rate (keratinocytes; [7]): further enhance cell growth rate at sub-micromolar doses
Cc1cccc(-c2n[nH]cc2-c2ccc3ncccc3n2)n1 [RepSox, 2-(3-(6-Methylpyridine-2-yl)-1H-pyrazol-4-yl)-1,5-naphthyridine]	pronounced increase of total cell number	little extra increase	
Oc1ccc2ccccc2c1SSc1c(O)ccc2ccccc12 [IPA-3, 1,1′-Dithiodi-2-naphthtol]	did not increase proliferation	synergistically increased	
CC1(C)CC=C(c2ccccc2)c2cc(/C=C/c3ccc(C(=O)O)cc3)ccc21 [BMS-453]			proliferation of keratinocytes (keratinocytes; 100 nM, with A83-01, EGF, isoproterenol and rHA): further increased the proliferation of keratinocytes; cell growth rate (keratinocytes; [7]): further enhance cell growth rate at sub-micromolar doses
Cc1cccc(-c2nn(C(=S)Nc3ccccc3)cc2-c2ccnc3ccccc23)n1 [A83-01, 3-(6-Methyl-2-pyridinyl)-N-phenyl-4-(4-quinolinyl)-1H-pyrazole-1-carbothioamide]	pronounced increase of total cell number		total population doublings [2]: also increased the total population doublings; hTERT expression ([3]; early passage (p2)): quickly induced; hTERT expression ([3]; late passage (p5)): sustained measurable hTERT expression; cell proliferation after 5 days ([1]; KSFM plus compound alone (FIG. 17)): significantly increased; hTERT expression ([4]; early passage (p3)): robustly induced; hTERT expression ([4]; late passage (p6)): sustained measurable hTERT expression; total population doublings [5]: also increased the total population doublings
CN(C)CCOc1cc(-c2cn[nH]c2)ccc1NC(=O)C1COc2ccccc2O1 (stereo not shown) [SR 3677, N-[2-[2-(Dimethylamino)ethoxy]-4-(1H-pyrazol-4-yl)phenyl-2,3-dihydro-1,4-benzodioxin-2-carboxamidedihydrochloride]	slight increase of total cell numbers	synergistically increased	
NC(=O)c1ccc(-c2nc(-c3ccc4c(c3)OCO4)c(-c3ccccn3)[nH]2)cc1 [SB 431542, 4-[4-(1,3-benzodioxol-5-yl)-5-(2-pyridinyl)-1H-imidazol-2-yl]benzamide]	pronounced increase of total cell number	little extra increase	
O=C(NCc1ccccc1)c1csc(Nc2ccncn2)n1 [Thiazovivin, N-Benzyl-[2-(pyrimidin-4-yl)amino]thiazole-4-carboxamide]	slight increase of total cell numbers	synergistically increased	
O=C(NC1CCOCC1)c1ccc(-c2cc(-c3c[nH]nc3-c3ccccn3)ccn2)cc1 [GW 788388, 4-[4-[3-(2-Pyridinyl)-1H-pyrazol-4-yl]-2-pyridinyl]-N-(tetrahydro-2H-pyran-4-yl)-benzamide]	pronounced increase of total cell number	little extra increase	
